Earlier results in patent US12708634B2, “Psilocybin derived compositions and methods using same” (1242753 Ontario Inc., priority 2021, dated 2026).

Experiments:
[1] = tested on: patients with treatment-resistant major depression; conditions: two oral doses (10 mg followed by 25 mg a week later)
[2] = tested on: patients with advanced-stage cancer; conditions: oral dose 0.2 mg/kg

SMILES: CN(C)CCc1c[nH]c2cccc(OP(=O)(O)O)c12 [psilocybin]
- adverse events [1]: no clinically significant adverse events
- adverse events [2]: no clinically significant adverse events
